Experimental data as given in ChEMBL document CHEMBL5096149, “Recent Update on Targeting c-MYC G-Quadruplexes by Small Molecules for Anticancer Therapeutics” (J Med Chem, 2021).

Tests used:
[1] = test system: HeLa; test: Cytotoxicity against human HeLa cells assessed as inhibition of cell viability incubated for 48 hrs by MTT assay; type: functional, cell-based
[2] = test system: Quadruplex DNA; test: Binding affinity to human c-MYC G-quadruplex (Pu24T) DNA assessed as second order binding constant by isothermal titration calorimetry method; type: nucleic-acid assay
[3] = test system: Quadruplex DNA; test: Binding affinity to human c-MYC G-quadruplex (Pu24T) DNA assessed as second order binding constant by fluorescence spectroscopy; type: nucleic-acid assay
[4] = test system: Quadruplex DNA; test: Thermal stabilization of human c-MYC G-quadruplex (Pu24T) DNA assessed as change in melting temperature at 1:2 ratio by circular dichroism spectroscopy; type: nucleic-acid assay
[5] = test system: Quadruplex DNA; test: Binding affinity to human c-MYC G-quadruplex (Pu24T) DNA assessed as first order binding constant by fluorescence spectroscopy; type: nucleic-acid assay
[6] = Cytotoxicity against human HEK cells assessed as inhibition of cell viability incubated for 48 hrs by MTT assay; type: functional, cell-based; conditions: HEK293, 48 h
[7] = test system: Quadruplex DNA; test: Binding affinity to human c-MYC G-quadruplex (Pu24T) DNA assessed as first order binding constant by isothermal titration calorimetry method; type: nucleic-acid assay
[8] = test system: Quadruplex DNA; test: Binding affinity to c-MYC G-quadruplex DNA (unknown origin) assessed as association constant by fluorescence spectroscopy; type: nucleic-acid assay
[9] = test system: Quadruplex DNA; test: Binding affinity to c-MYC G-quadruplex DNA (unknown origin) assessed as association rate constant by surface plasmon resonance analysis; type: nucleic-acid assay
[10] = test system: AMO1; test: Cytotoxicity against human AMO1 cells assessed as inhibition of cell viability incubated for 72 hrs by MTS assay; type: functional, cell-based; conditions: AMO1, 72 h
[11] = Cytotoxicity against human JIM1 cells assessed as inhibition of cell viability incubated for 72 hrs by MTS assay; type: functional, cell-based; conditions: JIM1, 72 h
[12] = test system: KMS-12-PE; test: Cytotoxicity against human KMS-12-PE cells assessed as inhibition of cell viability incubated for 72 hrs by MTS assay; type: functional, cell-based
[13] = Cytotoxicity against human KMS-27 cells assessed as inhibition of cell viability incubated for 72 hrs by MTS assay; type: functional, cell-based; conditions: KMS-27, 72 h
[14] = Cytotoxicity against human ARD cells assessed as inhibition of cell viability incubated for 72 hrs by MTS assay; type: functional, cell-based
[15] = test system: CA46; test: Cytotoxicity against human CA46 cells assessed as inhibition of cell viability incubated for 72 hrs by MTS assay; type: functional, cell-based; conditions: CA46, 72 h
[16] = Cytotoxicity against human Fibroblast cells assessed as inhibition of cell viability incubated for 72 hrs by MTS assay; type: toxicity, cell-based
[17] = Cytotoxicity against human HEK293T cells assessed as inhibition of cell viability incubated for 72 hrs by MTS assay; type: toxicity, cell-based, HEK-293T
[18] = test system: L-363; test: Cytotoxicity against human L-363 cells assessed as inhibition of cell viability incubated for 72 hrs by MTS assay; type: functional, cell-based; conditions: L-363, 72 h
[19] = Cytotoxicity against human KMM-1 cells assessed as inhibition of cell viability incubated for 72 hrs by MTS assay; type: functional, cell-based; conditions: KMM-1, 72 h
[20] = test system: NCI-H929; test: Cytotoxicity against human NCI-H929 cells assessed as inhibition of cell viability incubated for 72 hrs by MTS assay; type: functional, cell-based; conditions: NCI-H929, 72 h
[21] = test system: Quadruplex DNA; test: Thermal stabilization of c-MYC G-quadruplex DNA (unknown origin) assessed as change in melting temperature at 1:4 ratio by circular dichroism spectroscopy; type: nucleic-acid assay
[22] = Cytotoxicity against human Karpas-417 cells assessed as inhibition of cell viability incubated for 72 hrs by MTS assay; type: functional, cell-based; conditions: Karpas-417, 72 h
[23] = Cytotoxicity against human OPM-1 cells assessed as inhibition of cell viability incubated for 72 hrs by MTS assay; type: functional, cell-based; conditions: OPM-1, 72 h
[24] = test system: LP-1; test: Cytotoxicity against human LP-1 cells assessed as inhibition of cell viability incubated for 72 hrs by MTS assay; type: functional, cell-based; conditions: LP-1, 72 h
[25] = test system: Quadruplex DNA; test: Binding affinity to c-MYC G-quadruplex (Pu22) DNA (unknown origin) assessed as association rate constant by surface plasmon resonance analysis; type: nucleic-acid assay
[26] = test system: RPMI-8226; test: Cytotoxicity against human RPMI-8226 cells assessed as inhibition of cell viability incubated for 72 hrs by MTS assay; type: functional, cell-based; conditions: RPMI-8226, 72 h
[27] = test system: Quadruplex DNA; test: Thermal stabilization of c-MYC G-quadruplex (Pu22) DNA (unknown origin) assessed as change in melting temperature at 1:1 ratio by circular dichroism spectroscopy; type: nucleic-acid assay
[28] = Cytotoxicity against human MOLP8 cells assessed as inhibition of cell viability incubated for 72 hrs by MTS assay; type: functional, cell-based; conditions: MOLP-8, 72 h
[29] = test system: HT-1080; test: Antiproliferative activity against human HT-1080 cells assessed as inhibition of cell growth by celltiter-glo luminescent cell viability assay; type: functional, cell-based
[30] = test system: Quadruplex DNA; test: Thermal stabilization of c-MYC G-quadruplex DNA (unknown origin) assessed as change in melting temperature at 1:5 ratio by FRET melting assay; type: nucleic-acid assay
[31] = test system: HeLa; test: Antiproliferative activity against human HeLa cells assessed as inhibition of cell growth by XTT assay; type: functional, cell-based
[32] = test system: A549; test: Antiproliferative activity against human A549 cells assessed as inhibition of cell growth by XTT assay; type: functional, cell-based
[33] = Antiproliferative activity against human Kidney epithelial cells assessed as inhibition of cell growth by XTT assay; type: toxicity, cell-based
[34] = test system: MCF7; test: Antiproliferative activity against human MCF7 cells assessed as inhibition of cell growth by XTT assay; type: functional, cell-based
[35] = test system: Quadruplex DNA; test: Binding affinity to c-MYC G-quadruplex DNA (unknown origin) assessed as association rate constant by isothermal titration calorimetry method; type: nucleic-acid assay
[36] = test system: HCT-116; test: Antiproliferative activity against human HCT-116 cells assessed as inhibition of cell growth incubated for 24 hrs by XTT assay; type: functional, cell-based; conditions: HCT-116, 24 h
[37] = test system: HeLa; test: Antiproliferative activity against human HeLa cells assessed as inhibition of cell growth incubated for 24 hrs by XTT assay; type: functional, cell-based
[38] = Antiproliferative activity against human Kidney epithelial cells assessed as inhibition of cell growth incubated for 24 hrs by XTT assay; type: toxicity, cell-based

O=c1c(O)c(-c2ccc(O)c(O)c2)oc2cc(O)cc(O)c12 [QUERCETIN]
IC50 [1]: 4 µM
K [2]: 8.5 10^5/M
K [3]: 1.2 10^5/M
ΔTm [4]: 10.3 °C
K [5]: 0.72 10^7/M
IC50 [6]: 120 nM
K [7]: 1.57 10^7/M

Cc1oc2ccc(O)c(CN3CCCCCC3)c2c1C(=O)Nc1ccc(C(F)(F)F)cc1
Ka [8]: 1.06 10^5/M
Ka [9]: 7.14 10^5/M
IC50 [10]: 5.92 µM
IC50 [11]: 6.35 µM
IC50 [12]: 5.3 µM
IC50 [13]: 5.06 µM
IC50 [14]: 5.75 µM
IC50 [15]: 9.2 µM
IC50 at 72 h [16]: 19.6 µM
IC50 at 72 h [17]: 34 µM
IC50 [18]: 3.4 µM
IC50 [19]: 4.13 µM
IC50 [20]: 4.89 µM
ΔTm [21]: 7.5 °C
IC50 [22]: 4.8 µM
IC50 [23]: 6.48 µM

Cc1ccc(NC(=O)c2c(C)oc3ccc(O)c(CN4CCCCCC4)c23)cc1
IC50 [10]: 11.3 µM
IC50 [24]: 8.3 µM
Ka [25]: 2.2 10^5/M
IC50 [11]: 14.1 µM
IC50 [12]: 6.5 µM
IC50 [13]: 9.6 µM
IC50 [14]: 12.9 µM
IC50 [18]: 5.8 µM
IC50 [19]: 15.6 µM
IC50 [26]: 15.9 µM
ΔTm [27]: 2.1 °C
IC50 [28]: 8.3 µM

CN(C)c1cccc2c(S(=O)(=O)N(Cc3cn(C(C)(C)C(=O)OC[C@H]4O[C@@H](n5cnc6c(=O)[nH]c(N)nc65)[C@@H]5OC(C)(C)O[C@@H]54)nn3)Cc3cn(C(C)(C)C(=O)OC[C@H]4O[C@@H](n5cnc6c(=O)[nH]c(N)nc65)[C@@H]5OC(C)(C)O[C@@H]54)nn3)cccc12
Ka [8]: 4.8 10^7/M
IC50 [29]: 18.9 µM
ΔTm [30]: 12.6 °C

CN(C)CCCOc1cc(C(=O)NCc2cn(-c3cccc(NC(=O)C4CCCN4)c3)nn2)cc(C(=O)NCc2cn(-c3cccc(NC(=O)C4CCCN4)c3)nn2)c1 (stereo not given)
Ka [8]: 5.55 10^5/M
IC50 [31]: 8.3 µM
ΔTm [30]: 15 °C
IC50 [32]: 9.2 µM
IC50 [33]: > 50 µM
IC50 [34]: 3.8 µM
Ka [35]: 7 10^5/M

CN(C)CCCNC(=O)c1ccc(-n2cc(-c3ccc4c(c3)c3ccccc3n4CCCN(C)C)nn2)cc1
Ka [8]: 4.76 10^6/M
ΔTm [30]: 15.8 °C
IC50 [36]: 3.2 µM
IC50 [37]: 3.4 µM
IC50 at 24 h [38]: > 30 µM
